Assay results: ChEMBL document CHEMBL5550123, “Discovery of novel pyridone-benzamide derivatives possessing a 1-methyl-2-benzimidazolinone moiety as potent EZH2 inhibitors for the treatment of B-cell lymphomas” (Bioorg Med Chem, 2024)

What was measured:
[1] = system: KARPAS-422; assay: Antiproliferative activity against human KARPAS-422 cells assessed as inhibition of cell growth measured after 72 hrs by CCK-8 method; type: functional, cell-based; details: KARPAS-422, 72 h
[2] = Inhibition of EZH2 Y641N mutant (unknown origin) preincubated for 15 mins followed by substrate addition and measured after 45 mins by AlphaLISA assay; parameters: species or system Homo sapiens
[3] = Inhibition of EZH2 Y641F mutant (unknown origin) preincubated for 15 mins followed by substrate addition and measured after 45 mins by AlphaLISA assay; parameters: species or system Homo sapiens
[4] = Metabolic stability in human liver microsomes assessed as half life at 1 uM measured upto 60 mins in presence of NADPH by LC-MS/MS analysis; type: ADME, Microsome
[5] = Metabolic stability in human liver microsomes assessed as intrinsic clearance at 1 uM measured upto 60 mins in presence of NADPH by LC-MS/MS analysis; type: ADME, Microsome; details: read-out: CLH

CCN(c1cc(-c2ccc3c(c2)n(C)c(=O)n3C2CCN(C3COC3)CC2)cc(C(=O)NCc2c(C)cc(C)[nH]c2=O)c1C)C1CCOCC1
IC50 [1]: 25.5 nM

CCN(c1cc(-c2ccc3c(c2)n(C)c(=O)n3C2CCN(S(C)(=O)=O)CC2)cc(C(=O)NCc2c(C)cc(C)[nH]c2=O)c1C)C1CCOCC1
IC50 [1]: 68.4 nM

CCN(c1cc(-c2ccc3c(c2)n(C)c(=O)n3C2CN(CC#N)C2)cc(C(=O)NCc2c(C)cc(C)[nH]c2=O)c1C)C1CCOCC1
IC50 [1]: 58.2 nM

CCN(c1cc(-c2ccc3c(c2)n(C2CN(C)C2)c(=O)n3C)cc(C(=O)NCc2c(C)cc(C)[nH]c2=O)c1C)C1CCOCC1
IC50 [1]: 43.5 nM

CCN(c1cc(-c2ccc3c(c2)[nH]c(=O)n3C2CCOCC2)cc(C(=O)NCc2c(C)cc(C)[nH]c2=O)c1C)C1CCOCC1
IC50 [1]: 51.2 nM

CCN(c1cc(-c2ccc3c(c2)n(C2CCOCC2)c(=O)n3C)cc(C(=O)NCc2c(C)cc(C)[nH]c2=O)c1C)C1CCOCC1
IC50 [1]: 29.9 nM

CCN(c1cc(-c2ccc3c(c2)n(C)c(=O)n3C2CCN(C)CC2)cc(C(=O)NCc2c(C)cc(C)[nH]c2=O)c1C)C1CCN(C(C)=O)CC1
IC50 [1]: 105 nM

CCC(=O)N1CCC(n2c(=O)n(C)c3cc(-c4cc(C(=O)NCc5c(C)cc(C)[nH]c5=O)c(C)c(N(CC)C5CCOCC5)c4)ccc32)CC1
IC50 [1]: 37.7 nM

CCN(c1cc(-c2ccc3c(c2)n(C)c(=O)n3C2CN(C(C)=O)C2)cc(C(=O)NCc2c(C)cc(C)[nH]c2=O)c1C)C1CCOCC1
IC50 [1]: 145 nM

CCN(C)C1CCC(N(CC)c2cc(-c3ccc4c(c3)n(C)c(=O)n4C3CCN(C)CC3)cc(C(=O)NCc3c(C)cc(C)[nH]c3=O)c2C)CC1 (stereo not given)
IC50 [1]: 26.4 nM

CCN(c1cc(-c2ccc(CN3CCOCC3)cc2)cc(C(=O)NCc2c(C)cc(C)[nH]c2=O)c1C)C1CCOCC1 [TAZEMETOSTAT]
IC50 [2]: 0.85 nM
IC50 [1]: 35 nM
IC50 [3]: 0.37 nM
half-life at 1 µM [4]: 0.133 h
microsomal CLint at 1 µM [5]: 174 µL/min/mg

CCN(c1cc(-c2ccc3c(c2)n(C)c(=O)n3C2CCOCC2)cc(C(=O)NCc2c(C)cc(C)[nH]c2=O)c1C)C1CCOCC1
IC50 [1]: 49.5 nM

CCN(c1cc(-c2ccc3c(c2)n(C)c(=O)n3C2CCN(C)CC2)cc(C(=O)NCc2c(C)cc(C)[nH]c2=O)c1C)C1CCN(C)CC1
IC50 [1]: 173 nM

CCN1CCC(n2c(=O)n(C)c3cc(-c4cc(C(=O)NCc5c(C)cc(C)[nH]c5=O)c(C)c(N(CC)C5CCOCC5)c4)ccc32)CC1
IC50 [1]: 23.5 nM

CCN(c1cc(-c2ccc3c(c2)n(C)c(=O)n3C2COC2)cc(C(=O)NCc2c(C)cc(C)[nH]c2=O)c1C)C1CCOCC1
IC50 [1]: 57.4 nM

CCN(c1cc(-c2ccc3c(c2)n(C)c(=O)n3C2CCN(C)CC2)cc(C(=O)NCc2c(C)cc(C)[nH]c2=O)c1C)C1CCN(CC2CC2)CC1
IC50 [1]: 159 nM

CCN(c1cc(-c2ccc3c(c2)n(C)c(=O)n3C2CN(C(=O)C3CC3)C2)cc(C(=O)NCc2c(C)cc(C)[nH]c2=O)c1C)C1CCOCC1
IC50 [1]: 31.2 nM

CCN(c1cc(-c2ccc3c(c2)n(C)c(=O)n3C2CCN(C(C)=O)CC2)cc(C(=O)NCc2c(C)cc(C)[nH]c2=O)c1C)C1CCOCC1
IC50 [1]: 85.8 nM

CCN(c1cc(-c2ccc3c(c2)n(C)c(=O)n3C2CCN(CC3CC3)CC2)cc(C(=O)NCc2c(C)cc(C)[nH]c2=O)c1C)C1CCOCC1
IC50 [1]: 24.6 nM

CCN(c1cc(-c2ccc3c(c2)n(C)c(=O)n3C2CN(CC(F)F)C2)cc(C(=O)NCc2c(C)cc(C)[nH]c2=O)c1C)C1CCOCC1
IC50 [1]: 45.6 nM

CCN(C(=O)C1CC1)c1cc(-c2ccc3c(c2)n(C)c(=O)n3C2CCN(C)CC2)cc(C(=O)NCc2c(C)cc(C)[nH]c2=O)c1C
IC50 [1]: 29.8 nM

CCN(c1cc(-c2ccc3c(c2)n(C2CN(C4COC4)C2)c(=O)n3C)cc(C(=O)NCc2c(C)cc(C)[nH]c2=O)c1C)C1CCOCC1
IC50 [1]: 154 nM

CCN(c1cc(-c2ccc3c(c2)n(C)c(=O)n3C2CCN(CC(F)F)CC2)cc(C(=O)NCc2c(C)cc(C)[nH]c2=O)c1C)C1CCOCC1
IC50 [1]: 50.6 nM

CCN(c1cc(-c2ccc3c(c2)n(C)c(=O)n3C2CCN(CC(F)(F)F)CC2)cc(C(=O)NCc2c(C)cc(C)[nH]c2=O)c1C)C1CCOCC1
IC50 [1]: 52.8 nM

CCN(c1cc(-c2ccc3c(c2)n(C)c(=O)n3C2CCN(C)CC2)cc(C(=O)NCc2c(C)cc(C)[nH]c2=O)c1C)C1CCC(N(C)CCOC)CC1 (stereo not given)
IC50 [2]: 0.17 nM
IC50 [1]: 9.63 nM
IC50 [3]: 0.14 nM
half-life at 1 µM [4]: 2.46 h
microsomal CLint at 1 µM [5]: 9.38 µL/min/mg

CCN1CC(n2c(=O)n(C)c3ccc(-c4cc(C(=O)NCc5c(C)cc(C)[nH]c5=O)c(C)c(N(CC)C5CCOCC5)c4)cc32)C1
IC50 [1]: 52.9 nM

CCN1CCC(n2c(=O)n(C)c3ccc(-c4cc(C(=O)NCc5c(C)cc(C)[nH]c5=O)c(C)c(N(CC)C5CCOCC5)c4)cc32)CC1
IC50 [1]: 32.8 nM

CCN(c1cc(-c2ccc3c(c2)n(C)c(=O)n3C2CCN(CC#N)CC2)cc(C(=O)NCc2c(C)cc(C)[nH]c2=O)c1C)C1CCOCC1
IC50 [1]: 53.8 nM

CCN(c1cc(-c2ccc3c(c2)n(C2CCN(C)CC2)c(=O)n3C)cc(C(=O)NCc2c(C)cc(C)[nH]c2=O)c1C)C1CCOCC1
IC50 [1]: 26.3 nM

CCN(c1cc(-c2ccc3c(c2)n(CC)c(=O)n3C2CCOCC2)cc(C(=O)NCc2c(C)cc(C)[nH]c2=O)c1C)C1CCOCC1
IC50 [1]: 62.5 nM

CCN(c1cc(-c2ccc3c(c2)n(C)c(=O)n3C2CN(C)C2)cc(C(=O)NCc2c(C)cc(C)[nH]c2=O)c1C)C1CCOCC1
IC50 [1]: 29.3 nM

CCN(c1cc(-c2ccc3c(c2)n(C)c(=O)n3C2CCN(C)CC2)cc(C(=O)NCc2c(C)cc(C)[nH]c2=O)c1C)C1CCOCC1
IC50 [1]: 18.4 nM

CCN(c1cc(-c2ccc3c(c2)n(C)c(=O)n3C2CN(CC3CC3)C2)cc(C(=O)NCc2c(C)cc(C)[nH]c2=O)c1C)C1CCOCC1
IC50 [1]: 39.7 nM

CCN(c1cc(-c2ccc3c(c2)n(C)c(=O)n3C2CCN(C(=O)C3CC3)CC2)cc(C(=O)NCc2c(C)cc(C)[nH]c2=O)c1C)C1CCOCC1
IC50 [1]: 27.8 nM

CCN(c1cc(-c2ccc3c(c2)n(C)c(=O)n3CCOC)cc(C(=O)NCc2c(C)cc(C)[nH]c2=O)c1C)C1CCOCC1
IC50 [1]: 60.8 nM

CCN(c1cc(-c2ccc3c(c2)n(C)c(=O)n3C2CCN(C)CC2)cc(C(=O)NCc2c(C)cc(C)[nH]c2=O)c1C)C1CCN(C2COC2)CC1
IC50 [1]: 219 nM

CCN(c1cc(-c2ccc3c(c2)n(C)c(=O)n3C2CCN(C)CC2)cc(C(=O)NCc2c(C)cc(C)[nH]c2=O)c1C)C1CCC(N(C)C2COC2)CC1 (stereo not given)
IC50 [1]: 23.2 nM
